In the supplement of paper PMC10307832:

What was measured:
Experiment in all cases: relative viability (nuclei count vs DMSO), 5 days (fraction); higher = more cells survive
Shikonin + Olaparib = compound: CC(C)=CC[C@@H](O)C1=CC(=O)c2c(O)ccc(O)c2C1=O [Shikonin] + O=C(c1cc(Cc2n[nH]c(=O)c3ccccc23)ccc1F)N1CCN(C(=O)C2CC2)CC1 [Olaparib] (partner 8 µM)
Summary of the method: (§1)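 A single step with final 0.05% Triton X-100, 1% formaldehyde and 1 ug/ml Hoechst fixed the cells and stained nuclei 5 days after treatment. Lung cancer cell lines in 1536-well plates had been treated by pin tool the day after seeding with one drug alone or a fixed anchor-drug dose plus five library-drug doses (not always all listed) in √10 steps, and nuclei were counted on 4× images. Relative viability is the ratio of nuclei in treated wells to nuclei in vehicle wells, taken as the median of duplicate plates.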

[1] = compound: CC(C)N(CCCNC(=O)Nc1ccc(C(C)(C)C)cc1)C[C@H]1O[C@@H](n2ccc3c(N)ncnc32)[C@H](O)[C@@H]1O + CC(=O)c1c(C)c2cnc(Nc3ccc(N4CCNCC4)cn3)nc2n(C2CCCC2)c1=O [Palbociclib] (partner 0.5 µM)
Summary of the method: as §1

[2] = compound: CC(C)N(CCCNC(=O)Nc1ccc(C(C)(C)C)cc1)C[C@H]1O[C@@H](n2ccc3c(N)ncnc32)[C@H](O)[C@@H]1O + CC1(C)CCC(c2ccc(Cl)cc2)=C(CN2CCN(c3ccc(C(=O)NS(=O)(=O)c4ccc(N[C@H](CCN5CCOCC5)CSc5ccccc5)c(S(=O)(=O)C(F)(F)F)c4)cc3)CC2)C1 [Navitoclax] (partner 0.5 µM)
Summary of the method: as §1

[3] = compound: CC(C)N(CCCNC(=O)Nc1ccc(C(C)(C)C)cc1)C[C@H]1O[C@@H](n2ccc3c(N)ncnc32)[C@H](O)[C@@H]1O + CS(=O)(=O)CCNCc1ccc(-c2ccc3ncnc(Nc4ccc(OCc5cccc(F)c5)c(Cl)c4)c3c2)o1 [Lapatinib] (partner 2 µM)
Summary of the method: as §1

In the case of UMC-11, the relative viability (Shikonin + Olaparib; first compound 0.01 µM) is reported as 0.332, the relative viability (Shikonin + Olaparib; first compound 0.1 µM) is reported as 0.374 and the relative viability (Shikonin + Olaparib; first compound 0.3162 µM) is reported as 0.346. The relative viability (Shikonin + Olaparib; first compound 1 µM) was 0.374, the relative viability ([1]; first compound 0.08 µM) was 0.294 and the relative viability ([1]; first compound 0.253 µM) was 0.316. It also gave a relative viability ([1]; first compound 0.8 µM) of 0.304, a relative viability ([1]; first compound 2.53 µM) of 0.323 and a relative viability ([1]; first compound 8 µM) of 0.28. For the same cell line, the relative viability ([2]; first compound 0.08 µM) was 0.296, the relative viability ([2]; first compound 0.253 µM) was 0.329 and the relative viability ([2]; first compound 0.8 µM) was 0.319. For the same cell line, the relative viability ([2]; first compound 2.53 µM) was 0.302, the relative viability ([2]; first compound 8 µM) was 0.294 and the relative viability ([3]; first compound 0.08 µM) was 0.864. For the same cell line, the relative viability ([3]; first compound 0.253 µM) was 0.772, the relative viability ([3]; first compound 0.8 µM) was 0.846 and the relative viability ([3]; first compound 2.53 µM) was 1.02. The relative viability ([3]; first compound 8 µM) was 1.05.
